From patent US9983196B2, “Compositions and methods for optimizing drug hydrophobicity and drug delivery to cells” (Bioelastics, Inc., priority 2009, dated 2018)

Experiments:
[1] = acid-base titration of elastic-contractile model proteins (pKa shift, Hill plot); type: physicochemical; settings: for ΔGap / ΔpKa: chemically-synthesized negatively-charged polymers of FIG. 3
[2] = controlled release of charged drug from oppositely charged ECMP; type: physicochemical; settings: release of Leu-enkephalin amide (LEA+); for zero order release level per day: after burst release, constant surface area
Excerpt: For controlled release of pharmaceuticals, positively charged drugs packaged in negatively charged ECMP result in zero-order release. Once the rate of drug release and its ΔGap have been determined for one member of a related family of ECMP, the release rates for another member of the family can be calculated from the acid-base titration data. […] Thus, the thermodynamics of model protein hydration can be determined for a designed ECMP with a known release rate and used to calculate the release rates of a drug from a related ECMP for which only the acid-base titration data has been determined.
FIG. 3 is a plot showing controlled release of positively charged Leu-enkephalin amide (H+-Tyr-Gly-Gly-Phe-Leu-NH2, (SEQ ID NO:6), LEA+) using chemically-synthesized, negatively-charged polymers with designed increases in hydrophobicity giving ΔpKa values of 0.9, 1.3, and 2.2 and ΔGap values of 1.2, 1.8, and 3.0 kcal/mol-E, respectively. After burst release due to 50% excess drug over polymer sites, a constant surface area maintains zero order release levels per day continuing at 4.7 μmole for 25 days, 2.7 μmole for 30 days, and 1.9 μmole for 70 days, respectively. The amino acid sequences from top to bottom are: SEQ ID NO:12, SEQ ID NO:13 and SEQ ID NO:14.
FIG. 5 is a pair of graphs of release profiles showing lower rates of drug release as n of nF increases, that is, as increasing numbers of Val (V) residues are replaced by Phe (F) residues using the series of Lys(K)/Phe(F)-containing model proteins of Table 3 with Φ=K. As the negatively-charged drug is added to the soluble positively-charged model protein phase separation occurs. Drug is added to a 50% excess, which is responsible for the burst release. A. Dexamethasone-phosphate release curves and B. Betamethasone-phosphate release curves.

[3] = cited from earlier work; for ΔG°HA(GχGVP): reference GGGVP = 0; for ΔG°HA(GχGVP) (from graph): Tt used to obtain value from experimental sigmoid curve of Tt versus ΔG°HA; for ΔG°HA(GχGVP) (data within parentheses): microbial preparations of poly(30 mers), n ≈ 40
[4] = cited from earlier work; for Tt: guest residue χ in poly[fχ(GχGVP),fv(GVGVP)], extrapolated to fχ=1, some cells marked (Tt); for Tt (data within parentheses): microbial preparations of poly(30 mers) (GVGVP GVGVP GχGVP GVGVP GVGVP GVGVP)n, n ≈ 40
[5] = Φ = E (glutamic acid, —COOH), cited from earlier work; for (∂ΔG/∂α) slope: from Hill plot; for ΔGgp (pKa shift): unperturbed pKa taken as 4.0

Substance | Tt [4] | ΔG°HA(GχGVP) ([3]; DSC) | other results
(GFGFPGEGFPGFGFPGFGFPGEGFPGFGFP)n (GFGFPGEGFPGFGFP) [ECMP2E/10F] | – | – | pK of the carboxylate [1]: ~6.2; ΔGap [1]: 3.0 kcal/mol-E; ΔpKa [1]: 2.2; duration of zero order release [2]: 70 days; zero order release level per day [2]: 1.9 µmol
(GVGIP) [pentamer polymer with a single CH2 added to GVGVP] | – | – | ΔGHA due to the addition of a single CH2 ([3]; DSC, difference of ΔHt(GVGVP) and ΔHt(GVGIP)): −1.5 kcal/mol-pentamer
Asn [N: Asn] | 50 °C | −0.05 kcal/mol-pentamer | –
Asp(COOH) [D°: Asp(COOH)] | 40 °C | −0.40 kcal/mol-pentamer | –
Asp(COO−) [D−: Asp(COO−)] | 170 (Tt) ° C. | – | ΔG°HA(GχGVP) (from graph) [3]: ≈+3.4 (from graph) kcal/mol-pentamer
Cys [C: Cys] | 30 (Tt) ° C. | – | ΔG°HA(GχGVP) (from graph) [3]: −1.90 (from graph) kcal/mol-pentamer
Gln [Q: Gln] | 70 °C | +0.75 kcal/mol-pentamer | –
Glu(COOH) [E°: Glu(COOH)] | 20 °C | −1.30 kcal/mol-pentamer | Tt (data within parentheses) [4]: 2 °C; ΔG°HA(GχGVP) (data within parentheses) [3]: −1.50 kcal/mol-pentamer
Gly [G: Gly] | 55 °C | 0.00 kcal/mol-pentamer | –
His+ [H+: His+] | 30 (Tt) ° C. | – | ΔG°HA(GχGVP) (from graph) [3]: −1.90 (from graph) kcal/mol-pentamer
His° [H°: His°] | −10 (Tt) ° C. | – | ΔG°HA(GχGVP) (from graph) [3]: −4.80 (from graph) kcal/mol-pentamer
Ile [I: Ile] | 10 °C | −3.65 kcal/mol-pentamer | –
Lys(NH2) [K°: Lys(NH2)] | 40 °C | −0.05 kcal/mol-pentamer | Tt (data within parentheses) [4]: 38 °C; ΔG°HA(GχGVP) (data within parentheses) [3]: −0.60 kcal/mol-pentamer
Met [M: Met] | 15 °C | −1.50 kcal/mol-pentamer | –
N-methyl-6-OH 1,4,5,6-tetrahydronicotinamide [Lys (6-OH tetrahydro NMeN)] | – | – | Tt linearly extrapolated to fX = 1 ([4]; poly[fV(VPGVG),fX(VPGXG)], 5.0 mg/ml polymer, 0.1M potassium bicarbonate pH 9.5, 0.1M KCl): 15 °C; ΔG°HA from FIG. 13 ([3]; gross estimates from Tt and curve, 5.0 mg/ml polymer, 0.1M potassium bicarbonate pH 9.5, 0.1M KCl): -3.5 kcal/mol
Phe [F: Phe] | −45 °C | −6.15 kcal/mol-pentamer | –
Pro [P: Pro] | 40 °C | −1.10 kcal/mol-pentamer | –
SEQ ID NO:12: chemically-synthesized, negatively-charged polymer of FIG. 3, top sequence, least hydrophobic (GVGFPGEGFPGVGVP) | – | – | ΔGap [1]: 1.2 kcal/mol-E; ΔpKa [1]: 0.9; duration of zero order release [2]: 25 days; zero order release level per day [2]: 4.7 µmol
SEQ ID NO:13: chemically-synthesized, negatively-charged polymer of FIG. 3, middle sequence (GEGVPGVGVPGVGFPGFGFPGVGVPGVGVP) | – | – | ΔGap [1]: 1.8 kcal/mol-E; ΔpKa [1]: 1.3; duration of zero order release [2]: 30 days; zero order release level per day [2]: 2.7 µmol
Ser [S: Ser] | 60 °C | +0.55 kcal/mol-pentamer | –
Thr [T: Thr] | 60 °C | −0.60 kcal/mol-pentamer | –
Trp [W: Trp] | −105 °C | −7.00 kcal/mol-pentamer | –
Tyr [Y: Tyr] | −75 °C | −5.85 kcal/mol-pentamer | –
Tyr(ϕ-O−) [Y−: Tyr(ϕ-O−)] | 140 °C | +1.95 kcal/mol-pentamer | –
Val [V: Val] | 26 °C | −2.50 kcal/mol-pentamer | –
[GVGVP GVGFP GΦGFP GVGVP GVGFP GFGFP]n(GVGVP) (GVGVPGVGFPGGFPGVGVPGVGFPGFGFPGVGVP) [E/5F] | – | – | (∂ΔG/∂α) slope [5]: 3.0 kcal/mol; ΔGgp (pKa shift) [5]: 3.1 kcal/mol
[GVGVP GVGFP GΦGFP GVGVP GVGFP GVGFP]n(GVGVP) (GVGVPGVGFPGGFPGVGVPGVGFPGVGFPGVGVP) [E/4F] | – | – | (∂ΔG/∂α) slope [5]: 2.2 kcal/mol; ΔGgp (pKa shift) [5]: 2.2 kcal/mol
[GVGVP GVGFP GΦGFP GVGVP GVGVP GVGVP]n(GVGVP) (GVGVPGVGFPGGFPGVGVPGVGVPGVGVPGVGVP) [E/2F] | – | – | (∂ΔG/∂α) slope [5]: 1.3 kcal/mol; ΔGgp (pKa shift) [5]: 1.0 kcal/mol
[GVGVP GVGVP GΦGVP GVGVP GVGFP GFGFP]n(GVGVP) (GVGVPGVGVPGGVPGVGVPGVGFPGFGFPGVGVP) [E/3F] | – | – | (∂ΔG/∂α) slope [5]: 1.7 kcal/mol; ΔGgp (pKa shift) [5]: 1.6 kcal/mol
[GVGVP GVGVP GΦGVP GVGVP GVGVP GVGVP]n(GVGVP) (GVGVPGVGVPGGVPGVGVPGVGVPGVGVPGVGVP) [E/0F] | – | – | (∂ΔG/∂α) slope [5]: 1.1 kcal/mol; ΔGgp (pKa shift) [5]: 0.7 kcal/mol
